Results from patent publication US10538555B2, “Macrocyclic inhibitors of the PD-1/PD-L1 and CD80(B7-1)/PD-L1 protein/protein interactions” (BRISTOL-MYERS SQUIBB COMPANY, priority 2014, dated 2020).
pIC50: −log10 of the molar value. Where a SMILES comes first, the peptide text is derived from it. Bridges are numbered along the chain shown (N, C = ends). [ ]: non-standard residue; d: D form. ξ: configuration not given here. Phe(3,4,5-F3) = N[C@@H](Cc1cc(F)c(F)c(F)c1)C(=O)O; Bta = N[C@@H](Cc1csc2ccccc12)C(=O)O; Hyp = O=C(O)[C@@H]1C[C@@H](O)CN1; NMeF = CN[C@@H](Cc1ccccc1)C(=O)O; NMeNle = CCCC[C@H](NC)C(=O)O; dPip = O=C(O)[C@H]1CCCCN1; hSer = N[C@@H](CCO)C(=O)O; NMeA = CN[C@@H](C)C(=O)O; ξC = NC(CS)C(=O)O; Sar = CNCC(=O)O

The molecules below were run against T1, Human PD-L1/PD-1 (Homo sapiens, UniProt Q9NZQ7) (assay: HTRF Human PD-L1/PD-1 binding assay (PD-1-Ig/PD-L1-His)). Conditions: PD-L1-His 10 nM, PD-1-Ig 20 nM; class symbol; read-out: HTRF Human PD-L1/PD-1 Binding Assay IC50 Range.
T1 construct: TVMV protease cleavage site (C); made in house; host or cells: HEK293T cells
T1 sequence (Q9NZQ7 with tags, fused parts or gaps): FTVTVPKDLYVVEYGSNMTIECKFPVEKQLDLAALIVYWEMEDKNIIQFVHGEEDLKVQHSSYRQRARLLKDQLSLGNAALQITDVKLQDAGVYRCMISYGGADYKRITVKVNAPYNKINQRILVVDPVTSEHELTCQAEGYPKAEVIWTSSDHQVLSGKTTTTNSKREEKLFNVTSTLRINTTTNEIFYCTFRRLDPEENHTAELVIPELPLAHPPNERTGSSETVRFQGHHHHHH
How it was run: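 HTRF competition using HEK293T-expressed human PD-1(25-167)-Ig at 20 nM and PD-L1(18-239)-His at 10 nM, compound incubated first with PD-L1 for 15 min, then with PD-1 for 15 min. Signal read as 665/620 nm ratio 30 min after adding Eu anti-Ig and APC anti-His antibodies.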
A pIC50 of 8.00 to 9.00 was found for `CCCC[C@H]1C(=O)N(C)[C@@H](CCCC)C(=O)N[C@@H](CCCNC(=N)N)C(=O)NC(C(=O)NCC(N)=O)CSCC(=O)N[C@@H](Cc2ccc(O)cc2)C(=O)N(C)[C@@H](C)C(=O)N[C@@H](CC(N)=O)C(=O)N2CCC[C@H]2C(=O)N[C@@H](CO)C(=O)N[C@@H](CCO)C(=O)N2CCC[C@H]2C(=O)N[C@@H](Cc2c[nH]c3ccccc23)C(=O)N[C@@H](CO)C(=O)N[C@@H](Cc2csc3ccccc23)C(=O)N1C` (stereo partly shown) [Example 10025] ({CH2CO}-Y[NMeA]NPS[hSer]PWS[Bta][NMeNle][NMeNle]R[ξC]G-NH2; thioether N-14) in this work.
A pIC50 of 8.00 to 9.00 was found for `CCCC[C@H]1C(=O)N(C)[C@@H](CCCC)C(=O)N[C@@H](CCCNC(=N)N)C(=O)NC(C(=O)NCC(N)=O)CSCC(=O)N[C@@H](Cc2ccc(O)cc2)C(=O)N(C)[C@@H](C)C(=O)N[C@@H](CC(N)=O)C(=O)N2CCC[C@H]2C(=O)N[C@@H](CCO)C(=O)N[C@@H](CO)C(=O)N2CCC[C@H]2C(=O)N[C@@H](Cc2c[nH]c3ccccc23)C(=O)N[C@@H](CO)C(=O)N[C@@H](Cc2c[nH]c3ccccc23)C(=O)N1C` (stereo partly shown) [Example 10034] ({CH2CO}-Y[NMeA]NP[hSer]SPWSW[NMeNle][NMeNle]R[ξC]G-NH2; thioether N-14) in this work.
A pIC50 of 8.00 to 9.00 was found for `CCCC[C@H]1C(=O)N(C)[C@@H](CCCC)C(=O)N[C@@H](CCCNC(=N)N)C(=O)NC(C(=O)NCC(N)=O)CSCC(=O)N[C@@H](Cc2ccc(O)cc2)C(=O)N(C)[C@@H](C)C(=O)N[C@@H](CC(N)=O)C(=O)N2CCC[C@H]2C(=O)N[C@@H](CO)C(=O)N[C@@H](CCO)C(=O)N2C[C@H](O)C[C@H]2C(=O)N[C@@H](Cc2c[nH]c3ccccc23)C(=O)N[C@@H](CO)C(=O)N[C@@H](Cc2csc3ccccc23)C(=O)N1C` (stereo partly shown) [Example 10035] ({CH2CO}-Y[NMeA]NPS[hSer][Hyp]WS[Bta][NMeNle][NMeNle]R[ξC]G-NH2; thioether N-14) in this work.
A pIC50 of 8.00 to 9.00 was found for `CCCC[C@H]1C(=O)N(C)[C@@H](CCCC)C(=O)N[C@@H](CCCNC(=N)N)C(=O)NC(C(=O)NCC(N)=O)CSCC(=O)N[C@@H](Cc2ccc(O)cc2)C(=O)N(C)[C@@H](C)C(=O)N[C@@H](CC(N)=O)C(=O)N2CCC[C@H]2C(=O)N[C@@H](CO)C(=O)N[C@@H](CCO)C(=O)N2CCC[C@H]2C(=O)N[C@@H](Cc2c[nH]c3ccccc23)C(=O)N[C@@H](CO)C(=O)N[C@@H](Cc2c[nH]c3ccccc23)C(=O)N1C` (stereo partly shown) [Example 10036] ({CH2CO}-Y[NMeA]NPS[hSer]PWSW[NMeNle][NMeNle]R[ξC]G-NH2; thioether N-14) in this work.
A pIC50 of 7.00 to 8.00 was found for `CCCC[C@H]1C(=O)N(C)[C@@H](CCCC)C(=O)N[C@@H](CCCNC(=N)N)C(=O)NC(C(=O)NCC(N)=O)CSCC(=O)N[C@@H](Cc2ccc(O)cc2)C(=O)N(C)[C@@H](C)C(=O)N[C@@H](CC(N)=O)C(=O)N2CCC[C@H]2C(=O)N[C@@H](CC(N)=O)C(=O)N[C@@H](CC(N)=O)C(=O)N2CCC[C@H]2C(=O)N[C@@H](Cc2c[nH]c3ccccc23)C(=O)N[C@@H](CO)C(=O)N[C@@H](Cc2csc3ccccc23)C(=O)N1C` (stereo partly shown) [Example 10042] ({CH2CO}-Y[NMeA]NPNNPWS[Bta][NMeNle][NMeNle]R[ξC]G-NH2; thioether N-14) in this work.
A pIC50 of 8.00 to 9.00 was found for `CCCC[C@H]1C(=O)N(C)[C@@H](CCCC)C(=O)N[C@@H](CCCNC(=N)N)C(=O)NC(C(=O)NCC(N)=O)CSCC(=O)N[C@@H](Cc2ccc(O)cc2)C(=O)N(C)[C@@H](C)C(=O)N[C@@H](CC(N)=O)C(=O)N2CCC[C@H]2C(=O)N[C@@H](CCO)C(=O)N[C@@H](CCO)C(=O)N2C[C@H](O)C[C@H]2C(=O)N[C@@H](Cc2c[nH]c3ccccc23)C(=O)N[C@@H](CO)C(=O)N[C@@H](Cc2c[nH]c3ccccc23)C(=O)N1C` (stereo partly shown) [Example 10043] ({CH2CO}-Y[NMeA]NP[hSer][hSer][Hyp]WSW[NMeNle][NMeNle]R[ξC]G-NH2; thioether N-14) in this work.
A pIC50 of 7.00 to 8.00 was found for `CCCC[C@H]1C(=O)N2CCC[C@@H]2C(=O)N[C@@H](CC(=O)O)C(=O)N[C@@H](C)C(=O)N(C)[C@@H](Cc2ccccc2)C(=O)N[C@@H](Cc2ccc(O)cc2)C(=O)N(C)CC(=O)N[C@@H](Cc2c[nH]c3ccccc23)C(=O)N[C@@H](Cc2ccc(O)cc2)C(=O)N[C@@H](CC(C)C)C(=O)N[C@H](C(=O)NCC(N)=O)CSCC(=O)N[C@@H](Cc2ccccc2)C(=O)N(C)[C@@H](Cc2ccccc2)C(=O)N1C` [Example 10044] ({CH2CO}-F[NMeF][NMeNle][dP]DA[NMeF]Y[Sar]WYLCG-NH2; thioether N-13) in this work.
A pIC50 of 7.00 to 8.00 was found for `CCCC[C@H]1C(=O)N(C)[C@@H](CCCC)C(=O)N[C@@H](CCCNC(=N)N)C(=O)NC(C(=O)NCC(N)=O)CSCC(=O)N[C@@H](Cc2ccc(O)cc2)C(=O)N(C)[C@@H](C)C(=O)N[C@@H](CC(N)=O)C(=O)N2CCC[C@H]2C(=O)N[C@@H](Cc2cnc[nH]2)C(=O)N[C@@H](CC(C)C)C(=O)N2CCC[C@H]2C(=O)N[C@@H](Cc2c[nH]c3ccccc23)C(=O)N[C@@H](CO)C(=O)N[C@@H](Cc2csc3ccccc23)C(=O)N1C` (stereo partly shown) [Example 10045] ({CH2CO}-Y[NMeA]NPHLPWS[Bta][NMeNle][NMeNle]R[ξC]G-NH2; thioether N-14) in this work.
A pIC50 of 8.00 to 9.00 was found for `CCCC[C@H]1C(=O)N(C)[C@@H](CCCC)C(=O)N[C@@H](CCCNC(=N)N)C(=O)NC(C(=O)NCC(N)=O)CSCC(=O)N[C@@H](Cc2ccc(O)cc2)C(=O)N(C)[C@@H](C)C(=O)N[C@@H](CC(N)=O)C(=O)N2CCC[C@H]2C(=O)N[C@@H](CO)C(=O)N[C@@H](CCO)C(=O)N2CCC[C@H]2C(=O)N[C@@H](Cc2c[nH]c3ccccc23)C(=O)N[C@@H](CO)C(=O)N[C@@H](Cc2csc3ccccc23)C(=O)N1C` (stereo partly shown) [Example 10049] ({CH2CO}-Y[NMeA]NPS[hSer]PWS[Bta][NMeNle][NMeNle]R[ξC]G-NH2; thioether N-14) in this work.
A pIC50 of 8.00 to 9.00 was found for `CCCC[C@H]1C(=O)N(C)[C@@H](CCCC)C(=O)N[C@@H](CCCNC(=N)N)C(=O)NC(C(=O)NCC(N)=O)CSCC(=O)N[C@@H](Cc2ccc(O)cc2)C(=O)N(C)[C@@H](C)C(=O)N[C@@H](CC(N)=O)C(=O)N2CCC[C@H]2C(=O)N[C@@H](CO)C(=O)N[C@@H](CCO)C(=O)N2C[C@H](O)C[C@H]2C(=O)N[C@@H](Cc2c[nH]c3ccccc23)C(=O)N[C@@H](CCO)C(=O)N[C@@H](Cc2csc3ccccc23)C(=O)N1C` (stereo partly shown) [Example 10050] ({CH2CO}-Y[NMeA]NPS[hSer][Hyp]W[hSer][Bta][NMeNle][NMeNle]R[ξC]G-NH2; thioether N-14) in this work.
A pIC50 of 8.00 to 9.00 was found for `CCCC[C@H]1C(=O)N(C)[C@@H](CCCC)C(=O)N[C@@H](CCCNC(=N)N)C(=O)NC(C(=O)NCC(N)=O)CSCC(=O)N[C@@H](Cc2ccc(O)cc2)C(=O)N(C)[C@@H](C)C(=O)N[C@@H](CC(N)=O)C(=O)N2CCC[C@H]2C(=O)N[C@@H](CO)C(=O)N[C@@H](CCO)C(=O)N2CCC[C@H]2C(=O)N[C@@H](Cc2c[nH]c3ccccc23)C(=O)N[C@@H](CCO)C(=O)N[C@@H](Cc2c[nH]c3ccccc23)C(=O)N1C` (stereo partly shown) [Example 10051] ({CH2CO}-Y[NMeA]NPS[hSer]PW[hSer]W[NMeNle][NMeNle]R[ξC]G-NH2; thioether N-14) in this work.
A pIC50 of 8.00 to 9.00 was found for `CCCC[C@H]1C(=O)N(C)[C@@H](CCCC)C(=O)N[C@@H](CCCNC(=N)N)C(=O)NC(C(=O)NCC(N)=O)CSCC(=O)N[C@@H](Cc2ccc(O)cc2)C(=O)N(C)[C@@H](C)C(=O)N[C@@H](CC(N)=O)C(=O)N2CCC[C@H]2C(=O)N[C@@H](CO)C(=O)N[C@@H](CCO)C(=O)N2C[C@H](O)C[C@H]2C(=O)N[C@@H](Cc2c[nH]c3ccccc23)C(=O)N[C@@H](CCO)C(=O)N[C@@H](Cc2c[nH]c3ccccc23)C(=O)N1C` (stereo partly shown) [Example 10052] ({CH2CO}-Y[NMeA]NPS[hSer][Hyp]W[hSer]W[NMeNle][NMeNle]R[ξC]G-NH2; thioether N-14) in this work.
A pIC50 of 7.00 to 8.00 was found for `CCCC[C@H]1C(=O)N2CCC[C@@H]2C(=O)N[C@@H](CC(=O)O)C(=O)N[C@@H](C)C(=O)N(C)[C@@H](Cc2ccccc2)C(=O)N[C@@H](Cc2ccc(O)cc2)C(=O)N(C)CC(=O)N[C@@H](Cc2c[nH]c3ccccc23)C(=O)N[C@@H](Cc2ccc(O)cc2)C(=O)N[C@@H](CC(C)C)C(=O)N[C@H](C(=O)NCC(N)=O)CSCC(=O)N[C@@H](Cc2cc(F)c(F)c(F)c2)C(=O)N(C)[C@@H](Cc2ccccc2)C(=O)N1C` [Example 10053] ({CH2CO}-[Phe(3,4,5-F3)][NMeF][NMeNle][dP]DA[NMeF]Y[Sar]WYLCG-NH2; thioether N-13) in this work.
A pIC50 of 6.00 to 7.00 was found for `CCCC[C@H]1C(=O)N2CCC[C@@H]2C(=O)N[C@@H](CO)C(=O)N[C@@H](C)C(=O)N(C)[C@@H](Cc2ccccc2)C(=O)N[C@@H](Cc2ccc(O)cc2)C(=O)N(C)CC(=O)N[C@@H](Cc2c[nH]c3ccccc23)C(=O)N[C@@H](Cc2ccc(O)cc2)C(=O)N[C@@H](CC(C)C)C(=O)N[C@H](C(=O)NCC(N)=O)CSCC(=O)N[C@@H](Cc2ccccc2)C(=O)N(C)[C@@H](Cc2ccccc2)C(=O)N1C` [Example 10054] ({CH2CO}-F[NMeF][NMeNle][dP]SA[NMeF]Y[Sar]WYLCG-NH2; thioether N-13) in this work.
A pIC50 of 6.00 to 7.00 was found for `CCCC[C@H]1C(=O)N2CCC[C@@H]2C(=O)N[C@@H](CO)C(=O)N[C@@H](C)C(=O)N(C)[C@@H](Cc2ccccc2)C(=O)N[C@@H](Cc2ccc(O)cc2)C(=O)N(C)CC(=O)N[C@@H](Cc2csc3ccccc23)C(=O)N[C@@H](Cc2ccc(O)cc2)C(=O)N[C@@H](CC(C)C)C(=O)N[C@H](C(=O)NCC(N)=O)CSCC(=O)N[C@@H](Cc2ccccc2)C(=O)N(C)[C@@H](Cc2ccccc2)C(=O)N1C` [Example 10055] ({CH2CO}-F[NMeF][NMeNle][dP]SA[NMeF]Y[Sar][Bta]YLCG-NH2; thioether N-13) in this work.
A pIC50 of 6.00 to 7.00 was found for `CCCC[C@H]1C(=O)N2CCC[C@@H]2C(=O)N[C@@H](CO)C(=O)N[C@@H](C)C(=O)N(C)[C@@H](Cc2ccccc2)C(=O)N[C@@H](Cc2ccc(O)cc2)C(=O)N2CCCC[C@@H]2C(=O)N[C@@H](Cc2c[nH]c3ccccc23)C(=O)N[C@@H](Cc2ccc(O)cc2)C(=O)N[C@@H](CC(C)C)C(=O)N[C@H](C(=O)NCC(N)=O)CSCC(=O)N[C@@H](Cc2ccccc2)C(=O)N(C)[C@@H](Cc2ccccc2)C(=O)N1C` [Example 10056] ({CH2CO}-F[NMeF][NMeNle][dP]SA[NMeF]Y[dPip]WYLCG-NH2; thioether N-13) in this work.
